In general, Kb refers to the equilibrium dissociation constant of an antagonist, usually derived from a functional assay.

Molecules are shown by their SMILES. Where a name gives a salt, the structure may show the parent alone.

The source of these data is US7829563B2, “Aminoamides as orexin antagonists” (Hoffmann-La Roche Inc., priority 2007, dated 2010).

This experiment has as its target T1, human orexin-2 (hOX2) receptors (Homo sapiens, UniProt O43614).
T1 construct: expressed in transfected cells
T1 sequence (O43614 1-444): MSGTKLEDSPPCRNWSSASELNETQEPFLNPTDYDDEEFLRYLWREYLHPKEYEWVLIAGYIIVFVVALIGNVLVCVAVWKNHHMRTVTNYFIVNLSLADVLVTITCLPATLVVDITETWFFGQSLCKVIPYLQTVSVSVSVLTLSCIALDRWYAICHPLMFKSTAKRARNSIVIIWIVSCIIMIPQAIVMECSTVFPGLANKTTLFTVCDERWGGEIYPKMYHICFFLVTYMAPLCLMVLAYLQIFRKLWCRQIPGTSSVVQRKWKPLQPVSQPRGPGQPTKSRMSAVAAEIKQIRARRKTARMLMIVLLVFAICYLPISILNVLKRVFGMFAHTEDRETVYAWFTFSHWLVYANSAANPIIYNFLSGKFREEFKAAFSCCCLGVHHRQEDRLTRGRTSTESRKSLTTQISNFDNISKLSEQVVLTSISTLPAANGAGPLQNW
Put plainly: Intracellular Ca2+ mobilization assay (FLIPR), antagonism of orexin-A. It counts as cell-based. The settings on record: CHO(dHFr−) cells stably expressing hOX2; orexin-A at EC80 as agonist; Kb=IC50/(1+[A]/EC50); read-out: Kb (μM) OX2R (human). An outline of the steps: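 Fluo-4-loaded CHO(dHFr−) cells stably expressing hOX2 were pre-incubated 25 min at 37° C with antagonist (11 concentrations, 0.0001-10 μM), then stimulated with orexin-A at daily-determined EC80. Peak FLIPR fluorescence was fitted to the Hill equation for IC50, and Kb was derived as IC50/(1+[A]/EC50).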
In general terms: A change in cytosolic calcium serves as a functional read-out for many receptors and channels.
As to `CNC(=O)[C@H](N[C@@H](CCc1ccc(C(F)(F)F)cc1)c1ccc(OC)c(OC)c1)c1ccc(Cl)cc1` [Example 94, (R)-2-(4-Chloro-phenyl)-2-[(S)-1-(3,4-dimethoxy-phenyl)-3-(4-trifluoromethyl-phenyl)-propylamino]-N-methyl-acetamide], the Kb stood at 0.0051 µM.
On to `CNC(=O)[C@H](N[C@@H](CCc1ccc(C(F)(F)F)cc1)c1ccc(OC)c(OC)c1)c1ccc(F)cc1` [Example 95, (R)-2-[(S)-1-(3,4-Dimethoxy-phenyl)-3-(4-trifluoromethyl-phenyl)-propylamino]-2-(4-fluoro-phenyl)-N-methyl-acetamide], for which the antagonist equilibrium constant (Kb) was 0.0086 µM.
In the case of `CNC(=O)[C@H](N[C@@H](CCc1ccc(Cl)cc1)c1ccc2c(c1)CCO2)c1ccccc1` [Example 96, (R)-2-[(S)-3-(4-Chloro-phenyl)-1-(2,3-dihydro-benzofuran-5-yl)-propylamino]-N-methyl-2-phenyl-acetamide], the Kb came to 0.0018 µM.
Next, `CNC(=O)[C@H](N[C@@H](CCc1ccc(Cl)cc1)c1ccc(OC)c(OC)c1Cl)c1ccccc1` [Example 98, (R)-2-[(S)-1-(2-Chloro-3,4-dimethoxy-phenyl)-3-(4-chloro-phenyl)-propylamino]-N-methyl-2-phenyl-acetamide]: 0.0014 µM.
The figure for `CNC(=O)[C@H](N[C@@H](CCc1ccc(C(F)(F)F)nc1)c1ccc2c(c1)CCCC2)c1ccc(F)cc1` [Example 102, (R)-2-(4-Fluoro-phenyl)-N-methyl-2-[(S)-1-(5,6,7,8-tetrahydro-naphthalen-2-yl)-3-(6-trifluoromethyl-pyridin-3-yl)-propylamino]-acetamide] is 0.0114 µM.
The figure for `CNC(=O)[C@H](N[C@@H](CCc1ccc(C(F)(F)F)nc1)c1cc(Cl)ccc1OC)c1ccc(F)cc1` [Example 104, (R)-2-[(S)-1-(5-Chloro-2-methoxy-phenyl)-3-(6-trifluoromethyl-pyridin-3-yl)-propylamino]-2-(4-fluoro-phenyl)-N-methyl-acetamide] is 0.0148 µM; for `CNC(=O)[C@H](N[C@@H](CCc1ccc(C(F)(F)F)nc1)c1cc(C)ccc1F)c1ccc(F)cc1` [Example 107, (R)-2-[(S)-1-(2-Fluoro-5-methyl-phenyl)-3-(6-trifluoromethyl-pyridin-3-yl)-propylamino]-2-(4-fluoro-phenyl)-N-methyl-acetamide] it is 0.0124 µM; for `CNC(=O)[C@H](N[C@@H](CCc1ccc(C(F)(F)F)cc1)c1ccc2c(c1)CCCO2)c1ccccc1` [Example 113, (R)-2-[(S)-1-Chroman-6-yl-3-(4-trifluoromethyl-phenyl)-propylamino]-N-methyl-2-phenyl-acetamide] it is 0.0089 µM.
Take `CNC(=O)[C@H](N[C@@H](CCc1ccc(C(F)(F)F)cc1)c1ccc2c(c1)OCCN2C)c1ccccc1` [Example 115, (R)—N-Methyl-2-[(S)-1-(4-methyl-3,4-dihydro-2H-benzo[1,4]oxazin-7-yl)-3-(4-trifluoromethyl-phenyl)-propylamino]-2-phenyl-acetamide]: the Kb worked out at 0.0114 µM.
Next, `CNC(=O)[C@H](N[C@@H](CCc1ccc(C(F)(F)F)cc1)c1sc(C)nc1C)c1ccc(F)cc1` [Example 116, (R)-2-[(S)-1-(2,4-Dimethyl-thiazol-5-yl)-3-(4-trifluoromethyl-phenyl)-propylamino]-2-(4-fluoro-phenyl)-N-methyl-acetamide]: 0.0061 µM.
The figure for `CNC(=O)[C@H](N[C@@H](CCc1ccc(C(F)(F)F)cc1)c1cc(C)ccc1F)c1ccccc1` [Example 123, (R)-2-[(S)-1-(2-Fluoro-5-methyl-phenyl)-3-(4-trifluoromethyl-phenyl)-propylamino]-N-methyl-2-phenyl-acetamide] is 0.0129 µM.
Consider `CNC(=O)[C@H](N[C@@H](CCc1ccc(C(F)(F)F)cc1)c1cc(C)ccc1F)c1ccc(F)cc1` [Example 124, (R)-2-[(S)-1-(2-Fluoro-5-methyl-phenyl)-3-(4-trifluoromethyl-phenyl)-propylamino]-2-(4-fluoro-phenyl)-N-methyl-acetamide], for which the Kb was 0.0123 µM.
Next, `CNC(=O)[C@H](N[C@@H](CCc1ccc(Cl)cc1)c1ccc(OC)c(OC)c1)c1ccccc1` [Example 163, (R)-2-[(S)-3-(4-Chloro-phenyl)-1-(3,4-dimethoxy-phenyl)-propylamino]-N-methyl-2-phenyl-acetamide]: 0.0011 µM; `CNC(=O)[C@H](N[C@@H](CCc1ccc(C(F)(F)F)nc1)c1ccc(OC)c(OC)c1)c1ccccc1` [Example 200, (R)-2-[(S)-1-(3,4-Dimethoxy-phenyl)-3-(6-trifluoromethyl-pyridin-3-yl)-propylamino]-N-methyl-2-phenyl-acetamide hydrochloride]: 0.0028 µM.
Regarding `CNC(=O)[C@H](N[C@@H](CCc1ccc(C(F)(F)F)cc1)c1cccc(OC)c1)c1ccccc1` [Example 221, (R)-2-[(S)-1-(3-Methoxy-phenyl)-3-(4-trifluoromethyl-phenyl)-propylamino]-N-methyl-2-phenyl-acetamide hydrochloride], the antagonist dissociation constant (Kb) amounted to 0.0026 µM.
Next, `CNC(=O)[C@@H](N[C@H](CCc1ccc(C(F)(F)F)cc1)c1cccc(OC)c1)c1ccccc1` [Example 222, (S)-2-[(R)-1-(3-Methoxy-phenyl)-3-(4-trifluoromethyl-phenyl)-propylamino]-N-methyl-2-phenyl-acetamide hydrochloride]: 0.0171 µM; `CNC(=O)[C@H](N[C@@H](CCc1ccc(C)nc1)c1ccc(F)c(C)c1)c1ccccc1` [Example 262, (R)-2-[(S)-1-(4-Fluoro-3-methyl-phenyl)-3-(6-methyl-pyridin-3-yl)-propylamino]-N-methyl-2-phenyl-acetamide]: 0.0173 µM; `Cc1cc([C@H](CCc2ccc(C(F)(F)F)nc2)N[C@@H](C(N)=O)c2ccccc2)ccc1F` [Example 353, (R)-2-[(S)-1-(4-Fluoro-3-methyl-phenyl)-3-(6-trifluoromethyl-pyridin-3-yl)-propylamino]-2-phenyl-acetamide]: 0.0057 µM.
`CNC(=O)[C@H](N[C@@H](CCc1ccc(C(F)(F)F)cc1)c1cccc(OC(F)F)c1)c1ccccc1` [Example 387, (R)-2-[(S)-1-(3-Difluoromethoxy-phenyl)-3-(4-trifluoromethyl-phenyl)-propylamino]-N-methyl-2-phenyl-acetamide]: the antagonist dissociation constant (Kb) is 0.008 µM.
The figure for `CNC(=O)[C@H](N[C@@H](CCc1ccc(C(F)(F)F)cc1)c1cccc(OC(F)F)c1)c1ccc(C)cc1` [Example 389, (R)-2-[(S)-1-(3-Difluoromethoxy-phenyl)-3-(4-trifluoromethyl-phenyl)-propylamino]-N-methyl-2-p-tolyl-acetamide] is 0.0048 µM.
With `CNC(=O)[C@H](N[C@@H](CCc1ccc(Cl)cc1)c1ccc(F)c(C)c1)c1ccccc1` [Example 392, (R)-2-[(S)-3-(4-Chloro-phenyl)-1-(4-fluoro-3-methyl-phenyl)-propylamino]-N-methyl-2-phenyl-acetamide], the Kb was found to be 0.0059 µM.
The figure for `CNC(=O)[C@H](N[C@@H](CCc1ccc(C)cc1)c1ccc(F)c(C)c1)c1ccccc1` [Example 397, (R)-2-[(S)-1-(4-Fluoro-3-methyl-phenyl)-3-p-tolyl-propylamino]-N-methyl-2-phenyl-acetamide] is 0.0042 µM.
